Results from US11590092B2, “Skin probiotic” (The Regents of the University of California, priority 2014, dated 2023).
≈ marks a conversion by molar mass, not a printed value.

Legend:
C. albicans [1] = test: Minimal fungicidal concentration test against C. albicans; assay type: cell-based, Candida albicans; settings: MBC/MFC test
Experimental: To determine the minimal bactericidal concentration (MBC) and minimal fungicidal concentration (MFC) of propionic acid, microorganisms (10^6 colony forming units (cfu)/ml) were incubated overnight in media with propionic acid (1.25-2,000 mM) in a 96-well microplate (100 μl per well). The control only received PBS. After incubation, the microorganisms were diluted 1:10-1:10^6 into PBS. The dilutions (5 μl) were spotted onto agar media to count cfu; MBC/MFC were determined at 99.9% killing level. To determine the effect of pH on growth of S. aureus USA300, the bacterium was incubated in TSB at pH 5.8 and 6.8, and TSB with 25 mM propionic acid at pH 5.8 and 6.8 (buffered with 4-(2-hydroxyethyl)-1-piperazineethanesulfonic acid (HEPES)) in a 96-well microplate overnight before spotting onto agar plates.

USA300 = test: MBC assay against USA300; assay type: cell-based, Staphylococcus aureus
Experimental: To determine the MBC of propionic acid, USA300 (10^6 CFU/ml) were incubated with propionic acid at various concentrations (1.25-100 mM in PBS) as indicated in each individual experiment in media on a 96-well microplate (100 μl per well) overnight. The control received only PBS. After incubation, the bacteria were diluted 1:10-1:10^6 with PBS. […] To determine the pH effect on the bacterial growth, USA300 in TSB was incubated with 2.5 mM propionic acid on a 96-well microplate (100 μl per well) overnight before spotting on an agar plate.
To determine the minimal bactericidal concentration (MBC) and minimal fungicidal concentration (MFC) of propionic acid, microorganisms (10^6 colony forming units (cfu)/ml) were incubated overnight in media with propionic acid (1.25-2,000 mM) in a 96-well microplate (100 μl per well). The control only received PBS. After incubation, the microorganisms were diluted 1:10-1:10^6 into PBS. […]

[2] = test system: S. aureus strains ATCC29247 and CMCC(B)26003; test: Inhibition of other S. aureus strains; assay type: cell-based, Staphylococcus aureus
[3] = Skin wound healing without USA300 inoculation; assay type: in vivo, ICR mice; settings: topical 100 mM propionic acid vs PBS (pH 7.1) and PBS/pH (pH 3.5), 8-day period
Experimental: ICR mice (2-3-month-old female) were anesthetized by isoflurane. In each experiment, there were five mice per group. A wound 5 mm in length was made on the dorsal skin after shaving with electrical clippers. Once the skin wound was created, 5 μl of propionic acid (100 mM), PBS (pH 7.1) or PBS (pH 3.5) was applied topically to the wounded areas. The wounds were left uncovered throughout the experimental period. For bacterial infection, USA300 (2×10^6 CFU in PBS) was applied topically to the wounded areas 10 min after application of propionic acid or PBS. For the measurement of the extent of wound closure, a transparent parafilm was put on the top of the wounded skin. The wound area was marked on the parafilm by drawing an area which covered the whole skin wound. The lesion size was measured daily for 8 days was calculated using the ImageJ software [National Institutes of Health (NIH), Bethesda, Md., USA] and expressed as mm^2. Student's t-test was used to determine the significance of the differences between groups of the PBS (pH 7.1)- and propionic acid-treated mice as well as the PBS (pH 7.1)- and PBS (pH 3.5)-treated mice. Data represent the mean±SD from three independent experiments. All experiments using mice were conducted in a Biosafety Level 2 (BSL-2) facility and with accordance to institutional guidelines for animal experiments.

C. albicans [4] = test: Radial diffusion assay against C. albicans; assay type: cell-based, Candida albicans
Experimental: A radial diffusion assay (RDA) was performed as follows. Briefly, microorganisms in the mid-log phase were centrifuged at 12,000×g for 10 min, washed with PBS, and dispersed (10^5 cfu/ml) in agar consisting of 1% (w/v) agarose (Sigma) and 3% (w/v) culture medium in PBS at 42° C. Then, the agar was poured into Petri dishes and solidified. Wells (diameter 3 mm and volume 30 μl) were created by poking a pipette tip into the semi-solidified agar. Propionic acid was serially diluted in PBS to concentrations ranging from 5 to 2,000 mM, and 30 μl aliquots were added to the wells; PBS served as the control. After 3 h of incubation, a 10 ml overlay gel composed of 3% culture medium and 1% agarose was poured onto the plates, where after the plates were incubated overnight and examined for zones of growth inhibition.

CCC(=O)O [propionic acid]
concentration that completely killed C. albicans (C. albicans [1]): greater than or equal to 25 mM
concentration that effectively suppressed the growth of C. albicans (C. albicans [1]): greater than 10 mM
antimicrobial activity against USA300 (USA300; 25 mM): excellent antimicrobial activity
bacterial numbers of USA300 (USA300; 25 mM propionic acid (pH 5.8), 24 h, USA300 10^6 CFU): 4.9±0.2×10^4 CFU/ml
antimicrobial activity against USA300 after buffering (USA300; 25 mM propionic acid (pH 6.8) buffered with ammonium hydroxide): remained
concentration that completely killed USA300 (USA300; MBC test): greater than or equal to 100 mM
concentration that effectively suppressed the growth of USA300 (USA300; MBC test, more than 1 log10 reduction): greater than 25 mM
concentration that completely killed USA300 (USA300; MBC test, listed as Propionic acid): greater than 100 mM
MBC (USA300; Staphylococcus aureus, in TSB, USA300 10^6 CFU/ml, overnight): 25 mM (≈ 1850 µg/mL)
concentration for a complete growth inhibition of USA300 (USA300; dissolved in 4% dimethyl sufoxide, overnight): 100 Mm
MBC (>1 log10 inhibition) against USA300 (USA300; dissolved in 4% dimethyl sufoxide, overnight, 0-100 mM): 25 mM
inhibition of S. aureus strains besides USA300 [2]: inhibit
changes in lesion sizes of wounds without USA300 inoculation [3]: not statistically different
minimum effective concentration for growth inhibition zones, C. albicans (C. albicans [4]): 10 mM
